According to the supplement of paper PMC10307832:

compound: CC1(COc2ccc3c(c2)ncn3-c2ccc3cccc(N4CCC(N)CC4)c3n2)COC1 [Crenolanib] + CC(=O)c1c(C)c2cnc(Nc3ccc(N4CCNCC4)cn3)nc2n(C2CCCC2)c1=O [Palbociclib] (partner 0.5 µM); experiment: relative viability (nuclei count vs DMSO), 5 days (fraction); higher = more cells survive; conditions: first compound 0.01 µM
Method in brief: (§1)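 Lung cancer cell lines in 1536-well plates were dosed by pin tool the day after seeding, either with one drug alone or with a fixed anchor-drug dose plus five library-drug doses (not always all listed) in √10 steps. After 5 days, cells were fixed and their nuclei stained in one step (final 0.05% Triton X-100, 1% formaldehyde, 1 ug/ml Hoechst), then counted on 4× images. Relative viability is the nuclei count in treated wells divided by that in vehicle wells. Values are medians of duplicate plates.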

Going from NCI-H650 to CAL-12T, the relative viability rises from 0.308 to 0.423.

Going from NCI-H1666 to H3255, the relative viability falls from 0.657 to 0.303.

Going from NCI-H23 to NCI-H1915, the relative viability falls from 0.588 to 0.513.

Compared with NCI-H1437, NCI-H322M is higher in relative viability: 0.33 for the first, 0.497 for the second.

Going from NCI-H1792 to HCC-366, the relative viability falls from 0.68 to 0.458.

Going from NCI-H1793 to PC-3 [JPC-3], the relative viability rises from 0.295 to 0.563.

Going from EKVX to LCLC-103H, the relative viability rises from 0.447 to 0.541.

Going from NCI-H1650 to NCI-H1944, the relative viability falls from 0.397 to 0.356.

Going from NCI-H1993 to SK-LU-1, the relative viability falls from 0.596 to 0.368.

Going from ABC-1 to NCI-H358, the relative viability falls from 0.775 to 0.164.

Going from NCI-H661 to RERF-LC-KJ, the relative viability rises from 0.433 to 1.13.

same assay, conditions: first compound 0.03162 µM

Going from NCI-H650 to CAL-12T, the relative viability falls from 0.346 to 0.344.

Compared with NCI-H1666, H3255 is lower in relative viability: 0.678 for the first, 0.309 for the second.

First: NCI-H23
Second: NCI-H1915
The relative viability of the first is lower: 0.516 for the first, 0.57 for the second.

First: NCI-H1437
Second: NCI-H322M
The relative viability of the first is lower: 0.322 for the first, 0.483 for the second.

Compared with NCI-H1792, NCI-H2085 is lower in relative viability: 0.683 for the first, 0.46 for the second.

Going from HCC-366 to NCI-H1793, the relative viability falls from 0.381 to 0.321.

Compared with EKVX, LCLC-103H is higher in relative viability: 0.338 for the first, 0.441 for the second.

Compared with NCI-H1650, NCI-H1944 is higher in relative viability: 0.281 for the first, 0.315 for the second.

Going from NCI-H1993 to SK-LU-1, the relative viability falls from 0.704 to 0.394.

First: ABC-1
Second: NCI-H358
The relative viability of the first is higher: 0.638 for the first, 0.131 for the second.

Going from NCI-H661 to RERF-LC-KJ, the relative viability rises from 0.416 to 1.03.

same assay, conditions: first compound 0.1 µM

Going from NCI-H650 to CAL-12T, the relative viability rises from 0.33 to 0.411.

First: NCI-H1666
Second: H3255
The relative viability of the first is higher: 0.594 for the first, 0.325 for the second.

First: NCI-H23
Second: NCI-H1915
The relative viability of the first is lower: 0.454 for the first, 0.507 for the second.

Going from NCI-H1437 to NCI-H322M, the relative viability rises from 0.301 to 0.482.

First: NCI-H1792
Second: NCI-H2085
The relative viability of the first is higher: 0.648 for the first, 0.475 for the second.

Compared with HCC-366, NCI-H1793 is lower in relative viability: 0.416 for the first, 0.302 for the second.

Compared with PC-3 [JPC-3], EKVX is lower in relative viability: 0.543 for the first, 0.39 for the second.

Compared with LCLC-103H, NCI-H1650 is lower in relative viability: 0.465 for the first, 0.324 for the second.

First: NCI-H1944
Second: NCI-H1993
The relative viability of the first is lower: 0.335 for the first, 0.621 for the second.

First: SK-LU-1
Second: ABC-1
The relative viability of the first is lower: 0.328 for the first, 0.549 for the second.

First: NCI-H358
Second: NCI-H661
The relative viability of the first is lower: 0.136 for the first, 0.424 for the second.

RERF-LC-KJ gave a relative viability of 1.03.

same assay, conditions: first compound 0.3162 µM

Compared with NCI-H650, CAL-12T is higher in relative viability: 0.32 for the first, 0.457 for the second.

Compared with NCI-H1666, H3255 is lower in relative viability: 0.63 for the first, 0.301 for the second.

Compared with NCI-H23, NCI-H1915 is lower in relative viability: 0.539 for the first, 0.522 for the second.

First: NCI-H1437
Second: NCI-H322M
The relative viability of the first is lower: 0.293 for the first, 0.479 for the second.

First: NCI-H1792
Second: NCI-H2085
The relative viability of the first is higher: 0.687 for the first, 0.512 for the second.

First: HCC-366
Second: NCI-H1793
The relative viability of the first is higher: 0.46 for the first, 0.36 for the second.

Going from PC-3 [JPC-3] to EKVX, the relative viability falls from 0.534 to 0.393.

Compared with LCLC-103H, NCI-H1650 is lower in relative viability: 0.447 for the first, 0.308 for the second.

Compared with NCI-H1944, NCI-H1993 is higher in relative viability: 0.324 for the first, 0.688 for the second.

Compared with SK-LU-1, ABC-1 is higher in relative viability: 0.412 for the first, 0.643 for the second.

First: NCI-H358
Second: NCI-H661
The relative viability of the first is lower: 0.135 for the first, 0.408 for the second.

Cell Line RERF-LC-KJ has a relative viability of 1.1.

same assay, conditions: first compound 1 µM

Going from NCI-H650 to CAL-12T, the relative viability rises from 0.355 to 0.41.

First: NCI-H1666
Second: H3255
The relative viability of the first is higher: 0.694 for the first, 0.315 for the second.

Compared with NCI-H23, NCI-H1915 is lower in relative viability: 0.449 for the first, 0.389 for the second.

Compared with NCI-H1437, NCI-H322M is higher in relative viability: 0.332 for the first, 0.496 for the second.

First: NCI-H1792
Second: NCI-H2085
The relative viability of the first is higher: 0.677 for the first, 0.485 for the second.

Going from HCC-366 to NCI-H1793, the relative viability falls from 0.434 to 0.43.

Compared with PC-3 [JPC-3], EKVX is lower in relative viability: 0.568 for the first, 0.322 for the second.

Going from LCLC-103H to NCI-H1650, the relative viability falls from 0.492 to 0.387.

First: NCI-H1944
Second: NCI-H1993
The relative viability of the first is lower: 0.3 for the first, 0.579 for the second.

First: SK-LU-1
Second: ABC-1
The relative viability of the first is lower: 0.333 for the first, 0.899 for the second.

First: NCI-H358
Second: NCI-H661
The relative viability of the first is lower: 0.125 for the first, 0.43 for the second.

For RERF-LC-KJ, the relative viability was 1.05.

compound: CC1(COc2ccc3c(c2)ncn3-c2ccc3cccc(N4CCC(N)CC4)c3n2)COC1 [Crenolanib] + COc1cccc2cc(-c3nc([C@H]4CC[C@H](C(=O)O)CC4)n4ncnc(N)c34)[nH]c12 [OSI-027] (partner 0.5 µM); experiment: as above; conditions: first compound 0.01 µM
Method in brief: as §1

Compared with NCI-H650, CAL-12T is higher in relative viability: 0.564 for the first, 0.844 for the second.

Going from NCI-H1666 to H3255, the relative viability falls from 0.85 to 0.586.

Going from NCI-H23 to NCI-H1915, the relative viability falls from 0.689 to 0.583.

Going from NCI-H1437 to NCI-H322M, the relative viability falls from 0.902 to 0.648.

Compared with NCI-H1792, NCI-H2085 is lower in relative viability: 0.756 for the first, 0.707 for the second.

First: HCC-366
Second: NCI-H1793
The relative viability of the first is higher: 0.978 for the first, 0.297 for the second.

First: PC-3 [JPC-3]
Second: EKVX
The relative viability of the first is higher: 0.804 for the first, 0.737 for the second.

Compared with LCLC-103H, NCI-H1650 is higher in relative viability: 0.443 for the first, 0.666 for the second.

Compared with NCI-H1944, NCI-H1993 is lower in relative viability: 0.554 for the first, 0.527 for the second.

Compared with SK-LU-1, ABC-1 is higher in relative viability: 0.386 for the first, 0.526 for the second.

Compared with NCI-H358, NCI-H661 is lower in relative viability: 0.849 for the first, 0.757 for the second.

RERF-LC-KJ gave a relative viability of 0.583.

same assay, conditions: first compound 0.03162 µM

First: NCI-H650
Second: CAL-12T
The relative viability of the first is lower: 0.534 for the first, 0.634 for the second.

Compared with NCI-H1666, H3255 is lower in relative viability: 0.933 for the first, 0.544 for the second.

First: NCI-H23
Second: NCI-H1915
The relative viability of the first is higher: 0.649 for the first, 0.646 for the second.

Going from NCI-H1437 to NCI-H322M, the relative viability falls from 0.862 to 0.574.

Going from NCI-H1792 to NCI-H2085, the relative viability falls from 0.82 to 0.745.

First: HCC-366
Second: NCI-H1793
The relative viability of the first is higher: 0.861 for the first, 0.335 for the second.

Going from PC-3 [JPC-3] to EKVX, the relative viability rises from 0.725 to 0.78.

Compared with LCLC-103H, NCI-H1650 is higher in relative viability: 0.507 for the first, 0.696 for the second.

Compared with NCI-H1944, NCI-H1993 is higher in relative viability: 0.408 for the first, 0.526 for the second.

Compared with SK-LU-1, ABC-1 is higher in relative viability: 0.385 for the first, 0.536 for the second.

Going from NCI-H358 to NCI-H661, the relative viability falls from 0.777 to 0.721.

In the case of RERF-LC-KJ, the relative viability was 0.582.

same assay, conditions: first compound 0.1 µM

Compared with NCI-H650, CAL-12T is higher in relative viability: 0.52 for the first, 0.643 for the second.

Going from NCI-H1666 to H3255, the relative viability falls from 0.834 to 0.514.

First: NCI-H23
Second: NCI-H1915
The relative viability of the first is higher: 0.594 for the first, 0.592 for the second.

Compared with NCI-H1437, NCI-H322M is lower in relative viability: 0.936 for the first, 0.575 for the second.

Going from NCI-H1792 to NCI-H2085, the relative viability rises from 0.691 to 0.706.

Going from HCC-366 to NCI-H1793, the relative viability falls from 0.837 to 0.237.

Going from PC-3 [JPC-3] to EKVX, the relative viability falls from 0.803 to 0.69.

First: LCLC-103H
Second: NCI-H1650
The relative viability of the first is lower: 0.397 for the first, 0.691 for the second.

Going from NCI-H1944 to NCI-H1993, the relative viability rises from 0.416 to 0.509.

Going from SK-LU-1 to ABC-1, the relative viability rises from 0.218 to 0.522.

Compared with NCI-H358, NCI-H661 is higher in relative viability: 0.675 for the first, 0.744 for the second.

Cell Line RERF-LC-KJ has a relative viability of 0.574.

same assay, conditions: first compound 0.3162 µM

First: NCI-H650
Second: CAL-12T
The relative viability of the first is lower: 0.492 for the first, 0.712 for the second.

Compared with NCI-H1666, H3255 is lower in relative viability: 0.906 for the first, 0.573 for the second.

Compared with NCI-H23, NCI-H1915 is lower in relative viability: 0.783 for the first, 0.634 for the second.

Going from NCI-H1437 to NCI-H322M, the relative viability falls from 0.869 to 0.634.

Going from NCI-H1792 to NCI-H2085, the relative viability rises from 0.723 to 0.865.

First: HCC-366
Second: NCI-H1793
The relative viability of the first is higher: 0.893 for the first, 0.311 for the second.

Going from PC-3 [JPC-3] to EKVX, the relative viability falls from 0.792 to 0.683.

First: LCLC-103H
Second: NCI-H1650
The relative viability of the first is lower: 0.466 for the first, 0.667 for the second.

Going from NCI-H1944 to NCI-H1993, the relative viability rises from 0.397 to 0.567.

Going from SK-LU-1 to ABC-1, the relative viability rises from 0.372 to 0.531.

Compared with NCI-H358, NCI-H661 is higher in relative viability: 0.744 for the first, 0.854 for the second.

RERF-LC-KJ showed a relative viability of 0.648.

same assay, conditions: first compound 1 µM

First: NCI-H650
Second: CAL-12T
The relative viability of the first is lower: 0.348 for the first, 0.693 for the second.

Compared with NCI-H1666, H3255 is lower in relative viability: 0.85 for the first, 0.588 for the second.

First: NCI-H23
Second: NCI-H1915
The relative viability of the first is lower: 0.351 for the first, 0.417 for the second.

Going from NCI-H1437 to NCI-H322M, the relative viability falls from 0.855 to 0.534.

First: NCI-H1792
Second: NCI-H2085
The relative viability of the first is lower: 0.647 for the first, 0.709 for the second.

HCC-366 gave a relative viability of 0.75.
